The values below come from patent US6281196A, “Isolation and structural elucidation of the human cancer cell growth inhibitory compound denominated agelagalastatin” (Arizona Board of Regents, priority 2000, dated 2001).

Molecules are shown by their SMILES. Converted amounts (≈) assume the structure as drawn.

One data set has as its system lung NCI-H460. The experiment in a line: human cancer cell line growth inhibition, lung NCI-H460. Format: cell-based. As to conditions: drug dose needed to reduce the percent growth to 50%. The source says:
(§1) The current cost to develop the necessary data required for lawful marketing of a new drug compound approaches ten million dollars per compound. Economics dictate that such a huge investment be made only when there is a reasonable likelihood that it can be recovered. Absent such a likelihood, there will be no investment and, without investment, the research requisite for the discovery of these potentially life saving compounds will cease. Current research in the control of cancer in the United States is coordinated by the National Cancer Institute (NCI). To determine whether a substance has anti-cancer properties, the NCI has established a systematic protocol. This protocol, which involves the testing of a substance against a standard cell line panel containing 60 human tumor cell lines, has been verified and is accepted in scientific circles. The protocol, and the established statistical means for analyzing the results obtained by the standardized testing are fully described in the literature. […]
(§2) Each drug is tested at five (5) doses: 100-10-1-0.1-0.01 μg/ml. Percent Growths are calculated for each dose. […]

The test system of data set [1] is human cancer cell lines (brain SF-295, renal A498, colon KM20L2, melanoma SK-MEL-5, lung NCI-H460, ovarian OVCAR-3). Briefly: in vitro activity against minipanel of human cancer cell lines. As to conditions: portion of minipanel including brain SF-295, renal A498, colon KM20L2 and melanoma SK-MEL-5. Format: cell-based.
Excerpt: as §1, §2

In another data set the test system is ovary OVCAR-3. Briefly: human cancer cell line growth inhibition, ovary OVCAR-3. Format: cell-based. As to conditions: drug dose needed to reduce the percent growth to 50%.
Excerpt: as §1, §2

Another data set relates to L1210 leukemia cell line. The settings on record: cited from earlier work.
A further data set concerns murine melanoma B16. As to conditions: cited from earlier work.

The GI50 is the concentration that inhibits growth by half. Higher therefore signals lower sensitivity of the cells. As to `CCCCCCCCCCCCCCCCCCCCCC[C@@H](O)C(=O)N[C@@H](CO[C@H]1O[C@H](CO)[C@H](O)[C@H](O[C@@H]2O[C@@H]([C@@H](O)CO)[C@H](O)[C@H]2O[C@H]2O[C@@H]([C@@H](O)CO)[C@H](O)[C@H]2O)[C@H]1O)[C@H](O)[C@H](O)CCCCCCCCCCC(C)C` [agelagalastatin], the GI50 with lung NCI-H460 worked out at 0.77 µg/mL (≈ 0.666 µM); in the data set on ovary OVCAR-3 it was 2.8 µg/mL (≈ 2.42 µM). The in vitro activity result in data set [1] is listed as “significant in vitro activity”.

Turning to `CN1C(=O)NC2C3NC(=O)c4ccc(Br)n4C3CC21O` (centres unmarked) [agelastatin A], in the data set with L1210 leukemia cell line, the cytotoxic entry is recorded as “cytotoxic”.

In the case of `CCCCCCCCCCCCCCCCCCCCCCCCCC(=O)N[C@@H](CO[C@H]1O[C@H](CO)[C@H](O)[C@H](O)[C@H]1O)[C@H](O)[C@H](O)CCCCCCCCCCCCCC` [structural modification (5)], the in vivo active entry with murine melanoma B16 was “in vivo active”.
